Assay results from paper PMC5218480 (PLoS ONE, 2017).

Tested on: MV-4-11 cells
Experiment: Gene expression microarray analysis (Affymetrix PrimeView) and GSEA
Format: cell-based, human
Design: RFU PODN (11730768_x_at) / Fold change /veh PODN (11730768_x_at) / RFU LINC00158 (11744669_a_at) / Fold change /veh LINC00158 (11744669_a_at) / RFU DUSP10 (11751237_a_at) / Fold change /veh DUSP10 (11751237_a_at) / RFU ID3 (11757404_x_at) / Fold change /veh ID3 (11757404_x_at) / RFU PLEKHG5 (11737974_s_at) / Fold change /veh PLEKHG5 (11737974_s_at) / RFU LRRC4B (11730491_at) / Fold change /veh LRRC4B (11730491_at) / RFU GIMAP4 (11747438_a_at) / Fold change /veh GIMAP4 (11747438_a_at) / RFU KRT8 (11758183_x_at) / Fold change /veh KRT8 (11758183_x_at) / RFU CNN1 (11734310_a_at) / Fold change /veh CNN1 (11734310_a_at) / RFU VPS37D (11726825_at) / Fold change /veh VPS37D (11726825_at) / RFU C10orf10 (11716522_x_at) / Fold change /veh C10orf10 (11716522_x_at) / RFU KIR2DL2 /// KIR2DL4 /// KIR2DL5A /// KIR2DL5B /// KIR2DS1 /// KIR2DS2 /// KIR2DS3 /// KIR2DS4 /// KIR3DL3 /// KIR3DL3 /// KIR3DS1 (11738374_at) / Fold change /veh KIR2DL2 /// KIR2DL4 /// KIR2DL5A /// KIR2DL5B /// KIR2DS1 /// KIR2DS2 /// KIR2DS3 /// KIR2DS4 /// KIR3DL3 /// KIR3DL3 /// KIR3DS1 (11738374_at) / RFU C1QL1 (11718748_at) / Fold change /veh C1QL1 (11718748_at) / RFU TMPRSS4 (11747572_a_at) / Fold change /veh TMPRSS4 (11747572_a_at) / RFU HAMP (11756126_x_at) / Fold change /veh HAMP (11756126_x_at) / RFU RNFT2 (11725882_a_at) / Fold change /veh RNFT2 (11725882_a_at) / RFU NR4A2 (11747474_a_at) / Fold change /veh NR4A2 (11747474_a_at) / RFU ABCC12 (11746883_a_at) / Fold change /veh ABCC12 (11746883_a_at) / RFU TMEM136 (11760407_x_at) / Fold change /veh TMEM136 (11760407_x_at) / RFU CLDN22 /// WWC2 (11732394_at) / Fold change /veh CLDN22 /// WWC2 (11732394_at) / RFU HLA-DPB1 (11760878_x_at) / Fold change /veh HLA-DPB1 (11760878_x_at) / RFU SPINT1 (11716480_a_at) / Fold change /veh SPINT1 (11716480_a_at) / RFU GAP43 (11754022_s_at) / Fold change /veh GAP43 (11754022_s_at) / RFU A4GNT (11735810_at) / Fold change /veh A4GNT (11735810_at) / RFU PRB3 (11715151_x_at) / Fold change /veh PRB3 (11715151_x_at) / RFU TUBB4B (11761932_at) / Fold change /veh TUBB4B (11761932_at) / RFU CAPN14 (11732068_a_at) / Fold change /veh CAPN14 (11732068_a_at) / RFU TMCC2 (11721928_a_at) / Fold change /veh TMCC2 (11721928_a_at) / RFU IRGQ (11745062_a_at) / Fold change /veh IRGQ (11745062_a_at) / RFU FAM174B (11720279_a_at) / Fold change /veh FAM174B (11720279_a_at) / RFU TMPRSS4 (11748680_a_at) / Fold change /veh TMPRSS4 (11748680_a_at) / RFU FAM212B (11763350_a_at) / Fold change /veh FAM212B (11763350_a_at) / RFU PLEKHG5 (11743358_a_at) / Fold change /veh PLEKHG5 (11743358_a_at) / RFU ZSCAN30 (11745921_a_at) / Fold change /veh ZSCAN30 (11745921_a_at) / RFU CMKLR1 (11741424_a_at) / Fold change /veh CMKLR1 (11741424_a_at) / RFU LOC101060620 /// MAPK8IP1 (11723275_at) / Fold change /veh LOC101060620 /// MAPK8IP1 (11723275_at) / RFU SPTSSB (11747773_x_at) / Fold change /veh SPTSSB (11747773_x_at) / RFU PRSS12 (11739890_at) / Fold change /veh PRSS12 (11739890_at) / RFU BIN1 (11741810_x_at) / Fold change /veh BIN1 (11741810_x_at) / RFU WNT11 (11732464_a_at) / Fold change /veh WNT11 (11732464_a_at) / RFU C10orf10 (11716521_a_at) / Fold change /veh C10orf10 (11716521_a_at) / RFU C5orf56 (11738089_at) / Fold change /veh C5orf56 (11738089_at) / RFU CYB561 (11721691_x_at) / Fold change /veh CYB561 (11721691_x_at) / RFU ANKRD19P (11752326_a_at) / Fold change /veh ANKRD19P (11752326_a_at) / RFU OR2T12 /// OR2T33 /// OR2T8 (11738714_s_at) / Fold change /veh OR2T12 /// OR2T33 /// OR2T8 (11738714_s_at) / RFU VCAN (11748164_a_at) / Fold change /veh VCAN (11748164_a_at) / RFU JSRP1 (11732532_at) / Fold change /veh JSRP1 (11732532_at) / RFU KRTAP10-11 (11738290_x_at) / Fold change /veh KRTAP10-11 (11738290_x_at) / RFU MYO3A (11730013_a_at) / Fold change /veh MYO3A (11730013_a_at) / RFU EBF3 (11725865_a_at) / Fold change /veh EBF3 (11725865_a_at) / RFU CAMK2N1 (11719241_x_at) / Fold change /veh CAMK2N1 (11719241_x_at) / RFU C5orf56 (11738088_a_at) / Fold change /veh C5orf56 (11738088_a_at) / RFU OLFML3 (11715873_a_at) / Fold change /veh OLFML3 (11715873_a_at) / RFU LOC100653217 /// NTM (11731650_a_at) / Fold change /veh LOC100653217 /// NTM (11731650_a_at) / RFU MAPK11 (11762145_a_at) / Fold change /veh MAPK11 (11762145_a_at) / RFU FIZ1 (11724087_x_at) / Fold change /veh FIZ1 (11724087_x_at) / RFU OASL (11726364_x_at) / Fold change /veh OASL (11726364_x_at) / RFU SOX15 (11748057_x_at) / Fold change /veh SOX15 (11748057_x_at) / RFU CD79A (11719716_a_at) / Fold change /veh CD79A (11719716_a_at) / RFU HIST1H1D (11736915_at) / Fold change /veh HIST1H1D (11736915_at) / RFU CASKIN2 (11723855_a_at) / Fold change /veh CASKIN2 (11723855_a_at) / RFU LOC730098 (11760151_x_at) / Fold change /veh LOC730098 (11760151_x_at) / RFU OR4N2 (11742367_at) / Fold change /veh OR4N2 (11742367_at) / RFU PRRT2 (11749266_a_at) / Fold change /veh PRRT2 (11749266_a_at) / RFU SNX32 (11753110_a_at) / Fold change /veh SNX32 (11753110_a_at) / RFU CDHR5 (11726645_a_at) / Fold change /veh CDHR5 (11726645_a_at) / RFU RCAN1 (11760418_a_at) / Fold change /veh RCAN1 (11760418_a_at) / RFU FAM167A (11723789_a_at) / Fold change /veh FAM167A (11723789_a_at) / RFU FAM26E (11764081_at) / Fold change /veh FAM26E (11764081_at) / RFU ISYNA1 (11749810_s_at) / Fold change /veh ISYNA1 (11749810_s_at) / RFU ACY1 (11761880_at) / Fold change /veh ACY1 (11761880_at) / RFU 11764098_at / Fold change /veh 11764098_at / RFU SAMD14 (11745864_x_at) / Fold change /veh SAMD14 (11745864_x_at) / RFU NPB (11741838_a_at) / Fold change /veh NPB (11741838_a_at) / RFU TMPRSS6 (11731388_a_at) / Fold change /veh TMPRSS6 (11731388_a_at) / RFU KRTAP10-2 (11738614_at) / Fold change /veh KRTAP10-2 (11738614_at) / RFU ARHGAP8 /// PRR5-ARHGAP8 (11727945_x_at) / Fold change /veh ARHGAP8 /// PRR5-ARHGAP8 (11727945_x_at) / RFU KRTAP5-7 /// NADSYN1 (11734609_at) / Fold change /veh KRTAP5-7 /// NADSYN1 (11734609_at) / RFU RASL12 (11751679_a_at) / Fold change /veh RASL12 (11751679_a_at) / RFU CDKN2B (11736163_a_at) / Fold change /veh CDKN2B (11736163_a_at) / RFU PRF1 (11729649_at) / Fold change /veh PRF1 (11729649_at) / RFU, ZNF638 /// ZNF638-IT1 / Fold change vs veh, ZNF638 /// ZNF638-IT1 / RFU, PANK3 / Fold change vs veh, PANK3 / RFU, SH3YL1 / Fold change vs veh, SH3YL1 / RFU, ZEB2 / Fold change vs veh, ZEB2 / RFU, NRIP1 / Fold change vs veh, NRIP1 / RFU, PTTG1IP / Fold change vs veh, PTTG1IP / RFU, CAPN2 / Fold change vs veh, CAPN2 / RFU, MED14 / Fold change vs veh, MED14 / RFU, SNORA58 / Fold change vs veh, SNORA58 / RFU, C1orf63 / Fold change vs veh, C1orf63 / RFU, LRRFIP1 / Fold change vs veh, LRRFIP1 / RFU, NDUFAF7 / Fold change vs veh, NDUFAF7 / RFU, SLC12A2 / Fold change vs veh, SLC12A2 / RFU, IBTK / Fold change vs veh, IBTK / RFU, ESF1 / Fold change vs veh, ESF1 / Fold change vs veh, TMEM50B / RFU, TAOK1 / Fold change vs veh, TAOK1 / RFU, ACBD3 / Fold change vs veh, ACBD3 / RFU, TMA16 / Fold change vs veh, TMA16 / RFU, RWDD3 / Fold change vs veh, RWDD3 / RFU, BCAT1 / Fold change vs veh, BCAT1 / RFU, EDEM3 / Fold change vs veh, EDEM3 / RFU, TMEM33 / Fold change vs veh, TMEM33 / RFU, WDR75 / Fold change vs veh, WDR75 / RFU, AHCTF1 / Fold change vs veh, AHCTF1 / RFU, TFRC / Fold change vs veh, TFRC / RFU, ZDHHC17 / Fold change vs veh, ZDHHC17 / RFU, NOM1 / Fold change vs veh, NOM1 / RFU, ARL8B / Fold change vs veh, ARL8B / RFU, ZBTB11 / Fold change vs veh, ZBTB11 / RFU, TAMM41 / Fold change vs veh, TAMM41 / RFU, KIAA1704 /// LOC100996395 / Fold change vs veh, KIAA1704 /// LOC100996395 / RFU, ING1 / Fold change vs veh, ING1 / RFU, TRMT61B / Fold change vs veh, TRMT61B / RFU, FUBP3 / Fold change vs veh, FUBP3 / RFU, TP53 / Fold change vs veh, TP53 / RFU, TNKS2 / Fold change vs veh, TNKS2 / RFU, ZFP14 / Fold change vs veh, ZFP14 / RFU, ACTR2 / Fold change vs veh, ACTR2 / RFU, PPP3R1 / Fold change vs veh, PPP3R1 / RFU, PIK3R1 / Fold change vs veh, PIK3R1 / RFU, HNRNPA1 / Fold change vs veh, HNRNPA1 / RFU, RNF170 / Fold change vs veh, RNF170 / RFU, ZNF28 / Fold change vs veh, ZNF28 / RFU, RNGTT / Fold change vs veh, RNGTT / RFU, OGT / Fold change vs veh, OGT / RFU, BRD1 / Fold change vs veh, BRD1 / RFU, MARS / Fold change vs veh, MARS / RFU, ZNF655 / Fold change vs veh, ZNF655 / RFU, FAHD1 / Fold change vs veh, FAHD1 / RFU, BDP1 / Fold change vs veh, BDP1 / RFU, LRRCC1 / Fold change vs veh, LRRCC1 / RFU, ARID1A / Fold change vs veh, ARID1A / RFU, ZNF146 / Fold change vs veh, ZNF146 / RFU, ZNF330 / Fold change vs veh, ZNF330 / RFU, GPN3 / Fold change vs veh, GPN3 / RFU, C9orf123 / Fold change vs veh, C9orf123 / RFU, N4BP2L2 / Fold change vs veh, N4BP2L2 / RFU, ARFIP1 / Fold change vs veh, ARFIP1 / RFU, FAM179B / Fold change vs veh, FAM179B / RFU, BCL10 / Fold change vs veh, BCL10 / RFU, UHRF1BP1L / Fold change vs veh, UHRF1BP1L / RFU, BET1 / Fold change vs veh, BET1 / RFU, CNOT2 / Fold change vs veh, CNOT2 / RFU, ZNF268 / Fold change vs veh, ZNF268 / Fold change vs veh, ZNF507 / RFU, DGCR2 / Fold change vs veh, DGCR2 / RFU, WDSUB1 / Fold change vs veh, WDSUB1 / Fold change vs veh, HSP90B1 /// MIR3652 / RFU, ADSS / Fold change vs veh, ADSS / RFU, GK / Fold change vs veh, GK / RFU, ZNF148 / Fold change vs veh, ZNF148 / RFU, TAF9 / Fold change vs veh, TAF9 / RFU, SLC1A5 / Fold change vs veh, SLC1A5 / RFU, SLMO2 / Fold change vs veh, SLMO2 / RFU, ABCC4 / Fold change vs veh, ABCC4 / RFU, LOC101060439 /// RAP1B / Fold change vs veh, LOC101060439 /// RAP1B / RFU, RFX7 / Fold change vs veh, RFX7 / RFU, GTPBP10 / Fold change vs veh, GTPBP10 / RFU, CNEP1R1 / Fold change vs veh, CNEP1R1 / RFU, BIVM-ERCC5 /// ERCC5 / Fold change vs veh, BIVM-ERCC5 /// ERCC5 / RFU, ILF3 / Fold change vs veh, ILF3 / RFU 11762660_at / Fold change /veh 11762660_at / RFU VCAN (11757783_s_at) / Fold change /veh VCAN (11757783_s_at) / RFU DDX43 (11728927_at) / Fold change /veh DDX43 (11728927_at) / RFU KRT8 (11758188_x_at) / Fold change /veh KRT8 (11758188_x_at) / RFU NKD1 (11759106_at) / Fold change /veh NKD1 (11759106_at) / RFU SRD5A1 (11742802_a_at) / Fold change /veh SRD5A1 (11742802_a_at) / RFU TPSAB1 /// TPSB2 (11721975_s_at) / Fold change /veh TPSAB1 /// TPSB2 (11721975_s_at) / RFU GSTM3 (11746129_a_at) / Fold change /veh GSTM3 (11746129_a_at) / RFU IL23R (11737362_x_at) / Fold change /veh IL23R (11737362_x_at) / RFU TMEM51 (11727254_a_at) / Fold change /veh TMEM51 (11727254_a_at) / RFU PIWIL2 (11732686_x_at) / Fold change /veh PIWIL2 (11732686_x_at) / RFU ORM1 (11744905_x_at) / Fold change /veh ORM1 (11744905_x_at) / RFU CCDC152 (11743942_at) / Fold change /veh CCDC152 (11743942_at) / RFU ECM1 (11717891_a_at) / Fold change /veh ECM1 (11717891_a_at) / RFU IL23R (11748794_a_at) / Fold change /veh IL23R (11748794_a_at) / RFU TNFAIP8L3 (11732012_x_at) / Fold change /veh TNFAIP8L3 (11732012_x_at) / RFU MBOAT4 (11741988_at) / Fold change /veh MBOAT4 (11741988_at) / RFU 11764193_at / Fold change /veh 11764193_at / RFU TMEM53 (11763286_at) / Fold change /veh TMEM53 (11763286_at) / RFU MAGEB2 (11727129_at) / Fold change /veh MAGEB2 (11727129_at) / RFU TMEM200A (11744735_a_at) / Fold change /veh TMEM200A (11744735_a_at) / RFU CCDC152 (11751479_a_at) / Fold change /veh CCDC152 (11751479_a_at) / RFU FAM211A (11726209_a_at) / Fold change /veh FAM211A (11726209_a_at) / RFU RGS16 (11746705_a_at) / Fold change /veh RGS16 (11746705_a_at) / RFU VCAN (11755009_s_at) / Fold change /veh VCAN (11755009_s_at) / RFU RHOB (11743442_s_at) / Fold change /veh RHOB (11743442_s_at) / RFU RGS16 (11720943_a_at) / Fold change /veh RGS16 (11720943_a_at) / RFU RGS16 (11720944_at) / Fold change /veh RGS16 (11720944_at) / RFU, VPS4B / Fold change vs veh, VPS4B / RFU, CREB1 / Fold change vs veh, CREB1 / RFU, DNAJC13 / Fold change vs veh, DNAJC13 / RFU, GNAQ / Fold change vs veh, GNAQ / RFU, CDK5R1 / Fold change vs veh, CDK5R1 / RFU, ZRANB3 / Fold change vs veh, ZRANB3 / RFU, CUL4A / Fold change vs veh, CUL4A / RFU, CCNY / Fold change vs veh, CCNY / RFU, UFL1 / Fold change vs veh, UFL1 / RFU, COG3 / Fold change vs veh, COG3 / RFU, DIAPH2 / Fold change vs veh, DIAPH2 / RFU, SKA2 / Fold change vs veh, SKA2 / RFU, AFF3 / Fold change vs veh, AFF3 / RFU, LMF1 / Fold change vs veh, LMF1 / RFU, IPO11 / Fold change vs veh, IPO11 / RFU, DFFB / Fold change vs veh, DFFB / RFU, FOXP1 / Fold change vs veh, FOXP1 / RFU, CARD8 / Fold change vs veh, CARD8 / RFU, STRN3 / Fold change vs veh, STRN3 / RFU, ADK / Fold change vs veh, ADK / RFU, RASSF2 / Fold change vs veh, RASSF2 / RFU, WIPF1 / Fold change vs veh, WIPF1 / RFU, LARP1B / Fold change vs veh, LARP1B / RFU, RASA1 / Fold change vs veh, RASA1 / RFU, RB1 / Fold change vs veh, RB1 / RFU, PPFIA1 / Fold change vs veh, PPFIA1 / RFU, MAT2A / Fold change vs veh, MAT2A / RFU, CCT5 / Fold change vs veh, CCT5 / RFU, WDR92 / Fold change vs veh, WDR92 / RFU, CUX1 / Fold change vs veh, CUX1 / RFU, TTC7A / Fold change vs veh, TTC7A / RFU, TMEM135 / Fold change vs veh, TMEM135 / RFU, DEPTOR / Fold change vs veh, DEPTOR / RFU, CPM / Fold change vs veh, CPM / RFU, DNAJB6 / Fold change vs veh, DNAJB6 / RFU, CACNA2D3 / Fold change vs veh, CACNA2D3 / RFU, DTX4 / Fold change vs veh, DTX4 / RFU, TFCP2 / Fold change vs veh, TFCP2 / RFU, GMCL1 /// GMCL1P1 / Fold change vs veh, GMCL1 /// GMCL1P1 / RFU, AEBP2 / Fold change vs veh, AEBP2 / RFU, SNHG1 /// SNORD22 /// SNORD25 /// SNORD26 /// SNORD27 /// SNORD28 /// SNORD29 /// SNORD31 / Fold change vs veh, SNHG1 /// SNORD22 /// SNORD25 /// SNORD26 /// SNORD27 /// SNORD28 /// SNORD29 /// SNORD31 / Fold change (Aza/veh), C12orf56 (ProbeSet 11735607_a_at) / Fold change (ACY-1035/veh), C12orf56 (ProbeSet 11735607_a_at) / Fold change (Aza/veh), FGFR1OP (ProbeSet 11751329_s_at) / Fold change (ACY-1035/veh), FGFR1OP (ProbeSet 11751329_s_at) / Fold change (Aza/veh), VPS36 (ProbeSet 11739960_a_at) / Fold change (ACY-1035/veh), VPS36 (ProbeSet 11739960_a_at) / RFU SYPL1 (11715823_x_at) / Fold change /veh SYPL1 (11715823_x_at) / RFU IGFBP7 (11715501_s_at) / Fold change /veh IGFBP7 (11715501_s_at) / RFU REEP3 (11722064_at) / Fold change /veh REEP3 (11722064_at) / RFU IGLL1 (11728026_x_at) / Fold change /veh IGLL1 (11728026_x_at): dose or concentration left out as unconfirmed
Conditions: ProbeSet 11718701_a_at; LIST B

Nc1ccc(-c2cccs2)cc1NC(=O)c1ccc2c(c1)cc(C1CC1)n2CCN1CCOCC1 [ACY-1035]
Fold change vs veh, ARFIP1: 0.86
